The values that follow come from patent US20150218212A1, “FLUORINATED EPOXYKETONE-BASED TETRAPEPTIDE COMPOUNDS AND USES THEREOF AS PROTEASOME INHIBITORS” (FLUORINOV PHARMA INC., priority 2012, published 2015).

Structures are written as SMILES.

For experiment [1], the target named is T1, proteasome Trypsin-like (T-L) activity (Mus musculus, UniProt P70195+Q9R1P1).
T1 construct: RBCs were lysed with assay lysis buffer and incubated on ice for 30 minutes; from tissue; host or cells: red blood cells of NOD/SCID mice
Kind of experiment: Pharmacodynamic proteasome activity in murine red blood cells, T-L. Type of experiment: in vivo, NOD/SCID mice. The conditions noted are these: iv, mice, 2 mg/kg i.v., time 0, read-out: Trypsin-like (T-L) mean residual activity relative to vehicle treated controls. The method, then: Cells were harvested by centrifugation at 1,200 rpm at room temperature. Cell pellets were washed with PBS (phosphate buffered saline) and lysed with assay lysis buffer (50 mM HEPES (N-2-hydroxyethylpiperazine-N′-2-ethanesulfonic acid), pH 7.5; 150 mM NaCl; 1% Triton X-100; 2 mM ATP). Cell lysates were incubated on ice for 30 minutes, mixed by vortex every 5 minutes, and then centrifuged at 12,000 g for 10 minutes. The supernatant was transferred to a 96-well plate. For each assay, 10 μg of total protein were incubated for 1 hour at 37° C. with increasing concentrations (1 nM to 10 μM) of test compound diluted in assay buffer (50 mM tris-HCl (tris(hydroxymethyl)aminomethane-HCl), pH 7.5; 150 mM NaCl). DMSO alone was used as a control in every assay plate. After incubation, a specific fluorogenic proteasome substrate was added to each assay reaction at a final concentration of 40 μM in a total volume of 100 μL. N-Succinyl-Leu-Leu-Val-Tyr-7-amino-4-methylcoumarin (Suc-Leu-Leu-Val-Tyr-AMC) was used for measuring chymotrypsin-like (CT-L) activity, t-butoxycarbonyl-Leu-Arg-Arg-7-amino-4-methylcoumarin (Boc-Leu-Arg-Arg-AMC) for trypsin-like (T-L) activity, and benzyloxycarbonyl-L-leucyl-L-leucyl-L-glutamyl-7-amino-4-methylcoumarin (Z-Leu-Leu-Glu-AMC) for caspase-like (C-L) activity. The excitation wavelength was set at 360 nm and the fluorescence emission wavelength of AMC was detected at 460 nm. The fluorescence of free AMC released during the enzymatic reaction was measured with a SpectraMax M5 fluorescent spectrophotometric plate reader (Molecular Devices, Sunnyvale, Calif.). AMC release rate was measured at 37° C. in a kinetic mode, recording every 5 minutes for 30 minutes. Experiments were performed in triplicate and repeated at least twice.
All mouse experiments were performed in accordance with approval from the Ontario Cancer Institute institutional animal review board. Five- to six-week-old male non-obese diabetic/severe combined immunodeficient (NOD/SCID) mice were grouped randomly (n=3 mice per group). Mice were administered vehicle (5% DMSO, 20% Cremophor) or compounds of Formula I at different doses either intravenously or by oral gavage, and venous blood samples (20-50 μL) were collected from each mouse over 24 hours. Blood samples were mixed with heparin (APP Pharmaceuticals; Schaumburg, Ill.) in 0.5 mL tubes in accordance with the manufacturer's instructions. After centrifugal separation at 3,000 g for 10 minutes, red blood cells (RBCs) in the bottom layer were transferred into a new tube and stored at −70° C. until use. RBCs were lysed with assay lysis buffer and incubated on ice for 30 minutes, mixing by vortex every 5 minutes, and then centrifuged at 12,000 g for 10 minutes. The supernatant was transferred to a 96-well plate and proteasome activity was measured as described above for tumor cell lysates.
Proteasome subunit activity (Chymotrypsin-like, Trypsin-like, Caspase-like, CT-L, T-L, C-L, respectively) were monitored over the course of 24 hrs following […] administration of representative compounds of Formula I. NOD/SCID mice were treated with compounds of Formula I (2 mg/kg by iv administration) or vehicle control and carfilzomib for up to 24 hours, as described above. Table 9 summarizes the data on pharmacodynamic activity of representative compounds of Formula I following a dose of 2 mg/kg intravenous (i.v) administration to mice. Data are presented as mean residual activity (SEM) relative to vehicle treated controls.

Another experiment relates to RPMI-8226. As to the kind of experiment: NCI screening panel, RPMI-8226 (Leukemia). Type of experiment: cell-based, human. How it is done: Representative compounds of Formula I were screened using the National Cancer Institute (NCI) screening panel, which consists of a panel of human tumor cell lines, representing leukemia, melanoma, and cancers of the lung, colon, ovary, breast, prostate and renal system.
After 24 h, two plates of each cell line are fixed in situ with TCA, to represent a measurement of the cell population for each cell line at the time of drug addition (Tz). Experimental drugs are solubilised in dimethyl sulfoxide at 400-fold the desired final maximum test concentration and stored frozen prior to use. At the time of drug addition, an aliquot of frozen concentrate is thawed and diluted to twice the desired final maximum test concentration with complete medium containing 50 μg/mL gentamicin. Additional four, 10-fold or ½ log serial dilutions are made to provide a total of five drug concentrations plus control. Aliquots of 100 μl of these different drug dilutions are added to the appropriate microtiter wells already containing 100 μl of medium, resulting in the required final drug concentrations.
Following drug addition, the plates are incubated for an additional 48 h at 37° C., 5% CO2, 95% air, and 100% relative humidity. For adherent cells, the assay is terminated by the addition of cold TCA (trichloroacetic acid). Cells are fixed in situ by the gentle addition of 50 μl of cold 50% (w/v) TCA (final concentration, 10% TCA) and incubated for 60 minutes at 4° C. The supernatant is discarded, and the plates are washed five times with tap water and air dried. Sulforhodamine B (SRB) solution (100 μl) at 0.4% (w/v) in 1% acetic acid is added to each well, and plates are incubated for 10 minutes at room temperature. After staining, unbound dye is removed by washing five times with 1% acetic acid and the plates are air dried. Bound stain is subsequently solubilised with 10 mM trizma base, and the absorbance is read on an automated plate reader at a wavelength of 515 nm. For suspension cells, the methodology is the same except that the assay is terminated by fixing settled cells at the bottom of the wells by gently adding 50 μl of 80% TCA (final concentration, 16% TCA). Using the seven absorbance measurements [time zero, (Tz), control growth, (C), and test growth in the presence of drug at the five concentration levels (Ti)], the percentage growth is calculated at each of the drug concentrations levels. Percentage growth inhibition is calculated as: [(Ti−Tz)/(C−Tz)]×100 for concentrations for which Ti>/=Tz and [(Ti−Tz)/Tz]×100 for concentrations for which Ti<Tz.
Three dose response parameters are calculated for each experimental agent. Growth inhibition of 50% (GI50) is calculated from [(Ti−Tz)/(C−Tz)]×100=50, which is the drug concentration resulting in a 50% reduction in the net protein increase (as measured by SRB staining) in control cells during the drug incubation. The drug concentration resulting in total growth inhibition (TGI) is calculated from Ti=Tz. The LC50 (concentration of drug resulting in a 50% reduction in the measured protein at the end of the drug treatment as compared to that at the beginning) indicating a net loss of cells following treatment is calculated from [(Ti−Tz)/Tz]×100=−50. Values are calculated for each of these three parameters if the level of activity is reached. However, if the effect is not reached or is exceeded, the value for that parameter is expressed as greater or less than the maximum or minimum concentration tested.

For `CC(C)C[C@H](NC(=O)[C@H](COC(F)F)NC(=O)CN1CCOCC1)C(=O)N[C@@H](COC(F)F)C(=O)N[C@@H](CC(C)C)C(=O)[C@@]1(C)CO1` [Example 1, (2S)—N-[(1S)-1-(difluoromethoxymethyl)-2-[[(1S)-3-methyl-1-[(2R)-2-methyloxirane-2-carbonyl]butyl]amino]-2-oxo-ethyl]-2-[[(2S)-3-(difluoromethoxy)-2-[(2-morpholinoacetyl)amino]propanoyl]amino]-4-methyl-pentanamide], the remaining activity at 2 mg/kg in experiment [1] turned out to be 100%. In the experiment on RPMI-8226, this compound registered a Log10GI50 of −7.56, a Log10LC50 of over −4.00 and a Log10TGI50 of −7.05.
The matching figures for `CC(C)C[C@H](NC(=O)[C@H](COC(F)F)NC(=O)CN1CCOCC1)C(=O)N[C@@H](Cc1ccccc1)C(=O)N[C@@H](CC(C)C)C(=O)[C@@]1(C)CO1` [Example 2, (2S)-N-[(1S)-1-benzyl-2-[[(1S)-3-methyl-1-[(2R)-2-methyloxirane-2-carbonyl]butyl]-amino]-2-oxo-ethyl]-2-[[(2S)-3-(difluoromethoxy)-2-[(2-morpholinoacetyl)amino]propanoyl]amino]-4-methyl-pentanamide]: 100%, −7.98, over −4.00 and −7.24.
In the case of `CC(C)C[C@H](NC(=O)[C@H](COC(F)F)NC(=O)CN1CCOCC1)C(=O)N[C@@H](Cc1ccccc1)C(=O)N[C@@H](Cc1ccccc1)C(=O)[C@@]1(C)CO1` [Example 3, (2S)-N-[(1S)-1-benzyl-2-[[(1S)-1-benzyl-2-[(2R)-2-methyloxiran-2-yl]-2-oxo-ethyl]amino]-2-oxo-ethyl]-2-[[(2S)-3-(difluoromethoxy)-2-[(2-morpholinoacetyl)-amino]propanoyl]amino]-4-methyl-pentan-amide], the remaining activity at 2 mg/kg in experiment [1] was 100%. In the experiment on RPMI-8226, this compound registered a Log10GI50 of under −8.00, a Log10LC50 of over −4.00 and a Log10TGI50 of −7.48.
In the same order, the values of `CC(C)C[C@H](NC(=O)[C@H](COC(F)F)NC(=O)CN1CCOCC1)C(=O)N[C@@H](COC(F)F)C(=O)N[C@@H](Cc1ccccc1)C(=O)[C@@]1(C)CO1` [Example 4, (2S)-N-[(1S)-2-[[(1S)-1-benzyl-2-[(2R)-2-methyloxiran-2-yl]-2-oxo-ethyl]amino]-1-(difluoromethoxymethyl)-2-oxo-ethyl]-2-[[(2S)-3-(difluoromethoxy)-2-[(2-mor-pholinoacetyl)amino]propanoyl]amino]-4 methyl-pentanamide] are 100%, −7.51, over −4.00 and −6.54.
The matching figures for `CC(C)C[C@H](NC(=O)[C@H](COC(F)F)NC(=O)[C@H](COC(F)F)NC(=O)[C@H](CCc1ccccc1)NC(=O)CN1CCOCC1)C(=O)[C@@]1(C)CO1` [Example 7, (2S)-N-[(1S)-1-(difluoromethoxymethyl)-2-[[(1S)-1-(difluoromethoxymethyl)-2-[[(1S)-3-methyl-1-[(2R)-2-methyloxirane-2-carbo-nyl]butyl]amino]-2-oxo-ethyl]amino]-2-oxo-ethyl]-2-[(2-morpholinoacetyl)amino]-4-phenyl-butanamide]: 100%, −7.56, over −4.00 and −7.04.
In the same order, the values of `CC(C)C[C@H](NC(=O)[C@H](Cc1ccccc1)NC(=O)[C@H](COC(F)F)NC(=O)[C@H](COC(F)F)NC(=O)CN1CCOCC1)C(=O)[C@@]1(C)CO1` [Example 11, (2S)-2-[[(2S)-3-(difluoromethoxy)-2-[[(2S)-3-(difluoromethoxy)-2-[(2-morpholinoacetyl)-amino]propanoyl]amino]propanoyl]amino]-N-[(1S)-3-methyl-1-[(2R)-2-methyloxirane-2-carbonyl]butyl]-3-phenyl-propanamide] are 100%, −7.65, over −4.00 and −7.02.
Take `CC(C)C[C@H](NC(=O)[C@H](COC(F)F)NC(=O)[C@H](COC(F)F)NC(=O)[C@H](COC(F)F)NC(=O)CN1CCOCC1)C(=O)[C@@]1(C)CO1` [Example 17, (2S)-3-(difluoromethoxy)-N-[(1S)-1-(difluoromethoxymethyl)-2-[[(1S)-1-(difluoro-methoxymethyl)-2-[[(1S)-3-methyl-1-[(2R)-2-methyloxirane-2-carbonyl]butyl]amino]-2-oxo-ethyl]amino]-2-oxo-ethyl]-2-[(2-mor-pholinoacetyl)amino]-propanamide]: in experiment [1], the remaining activity at 2 mg/kg is 100%. In the experiment with RPMI-8226, this compound gave a Log10GI50 of −7.14, a Log10LC50 of over −4.00 and a Log10TGI50 of -6.15.
